Source: ChEMBL document CHEMBL4417623, “Methods and compositions for inhibiting rho/mrtf-mediated diseases and conditions” (2015)
pIC50: −log10 of the molar value. Activity calls are given as the source filed them. The rule behind the calls is not given here.

What was measured:
[1] = Inhibition of Rho/MRTF/SRF mediated signaling (unknown origin) assessed as reduction in MRTF/SRF-regulated gene transcription by SRE-luciferase expression based assay; set-up: species or system Homo sapiens
[2] = Inhibition of Rho/MRTF/SRF mediated signaling (unknown origin) assessed as reduction in MRTF/SRF-regulated gene transcription by SRE-luciferase expression based assay relative to control; set-up: species or system Homo sapiens
[3] = organism: Mus musculus; assay: Inhibition of Rho/MRTF/SRF mediated signaling in mouse NIH/3T3 cells assessed as inhibition of fibrosis markers by measuring reduction in LPA-induced COL1A2-hn mRNA expression by qRT-PCR assay relative to perfenidone; format: cell-based
[4] = organism: Mus musculus; assay: Inhibition of Rho/MRTF/SRF mediated signaling in mouse NIH/3T3 cells assessed as inhibition of fibrosis markers by measuring reduction in LPA-induced ACTA2 mRNA expression by qRT-PCR assay relative to perfenidone; format: cell-based
[5] = organism: Homo sapiens; assay: Inhibition of Rho/MRTF/SRF mediated signaling in human dermal fibroblasts assessed as suppression of myofibroblast activation by measuring reduction in TGFbeta-induced alpha-SMA expression incubated for 3 days relative to perfenidone
[6] = tested on: Mus musculus; assay: Suppression of fibrosis in C57bl/6 mouse model of bleomycin-induced dermal fibrosis at 100 mg/kg, bid dosed via oral gavage; format: functional, organism-based

Structure (SMILES)	pIC50 [1]	also measured
O=C(O)CCSc1nnc(-c2ccccc2)o1	5.46	
COc1ccc(-c2nnc(SCCC(=O)O)o2)c(Cl)c1	8.59	
O=C(O)CCCSc1nnc(-c2ccc(Cl)cc2Cl)o1	8.74	
COc1ccc(-c2nnc(SCCC(=O)O)o2)cc1	6.80	
Cc1ccc(-c2nnc(SCCC(=O)O)o2)c(Cl)c1	8.82	
Cc1cccc(-c2nnc(SCCC(=O)O)o2)c1	6.74	
O=C(O)CCSc1nnc(-c2ccc(Cl)cc2)o1	6.47	
CC(ONC(=O)c1cc(C(F)(F)F)cc(C(F)(F)F)c1)C(=O)Nc1ccc(Cl)cc1 (stereo unspecified)		pIC50 [2]: 6.00
Cc1ccc(-c2nnc(SCCC(=O)O)o2)cc1	7.47	
O=C(O)CCSc1nnc(-c2cccc(Cl)c2)o1	5.82	
CCOC(=O)CCSc1nnc(-c2ccc(Cl)cc2Cl)o1	8.59	
COc1cccc(-c2nnc(SCCC(=O)O)o2)c1	5.44	
O=C(Nc1ccc(Cl)cc1)C1CCCN(C(=O)c2cccc(-c3ccco3)c2)C1 (stereo unspecified)		fold change (FC) [3]: 100; fold change (FC) [4]: 100; fold change (FC) [5]: 100; Activity [6]: Active
